Data set [1] has as its target T1, CTL843 (SAMHT, SAM/SAH transporter) (Chlamydia trachomatis, UniProt B0B8F4).
T1 sequence (B0B8F4 1-327): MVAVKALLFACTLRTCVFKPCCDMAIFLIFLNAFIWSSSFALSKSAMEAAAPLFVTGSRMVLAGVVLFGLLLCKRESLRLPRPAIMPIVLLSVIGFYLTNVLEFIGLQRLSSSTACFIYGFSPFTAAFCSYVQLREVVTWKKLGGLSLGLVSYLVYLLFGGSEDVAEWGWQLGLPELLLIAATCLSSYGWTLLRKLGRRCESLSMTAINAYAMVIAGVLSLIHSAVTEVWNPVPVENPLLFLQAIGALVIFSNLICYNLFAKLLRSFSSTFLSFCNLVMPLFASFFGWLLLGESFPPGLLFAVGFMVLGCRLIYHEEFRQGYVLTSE
The data set can be described thus: inhibition of […]SAM uptake in whole E. coli cells expressing CTL843. In kind it is cell-based.

Substrate in data set [2]: C[S@@+](CC[C@H](N)C(=O)O)C[C@H]1O[C@@H](n2cnc3c(N)ncnc32)[C@H](O)[C@@H]1O
As to the kind of experiment: cells, lysate or membranes.

The source of these data is PMC3104491 (mBio, 2011).

Regarding `Nc1ncnc2c1ncn2[C@@H]1O[C@H](CSCC[C@H](N)C(=O)O)[C@@H](O)[C@H]1O` [SAH, S-Adenosyl-L-homocysteine], in data set [1], the Ki was found to be 4.12 µM. That is a single-digit micromolar value.

B1: CTL843 (SAMHT, SAM/SAH transporter) (Chlamydia trachomatis L2/434/Bu) (protein)
chain: T1 sequence (B0B8F4 1-327)
On to B1, for which the Km in data set [2] is 5.88 ± 0.11 µM.

One may read the Ki as a measure of affinity in units of concentration, obtained from inhibition or displacement. Low readings indicate a stronger hold on the target, high ones a looser hold on the target. The term Km denotes the substrate concentration at which the rate is half of its maximum.
